Data published in patent US9139502B2, “Use of an urushiol compound in preparation of pharmaceutical compositions for inhibiting Smad3 phosphorylation” (Southern Hospital, Southern Medical University, priority 2013, dated 2015).

Key:
[1] = test system: Smad2 phosphorylation; test: Western blot of TGF-β1-induced Smad2 phosphorylation in vitro; format: cell-based, rat
Procedure: (§1) NRK52E and NRK49F cells were cultured in DMEM-Ham's medium supplemented with 10% fetal bovine serum. The cells reached at approximately 50% confluence were used for in vitro experiments. Cells were serum-starved for 12 h, and randomized into 6 groups: (1) Controls; (2) GQ-5 only; (3) TGF-β1 only; (4) TGF-β1+GQ-5 0.1 μM; (5) TGF-β1+GQ-5 0.5 μM; (6) TGF-β1+GQ-5 2.5 μM.
(2) GQ-5 only: pre-treated with GQ-5 (2.5 μM) for 1 h, followed with DMEM for 1 h
(3) TGF-β1 only: pre-treated with DMSO (0.1%) for 1 h, followed with TGF-β1 (10 ng/ml) for 1 h
(4) TGF-β1+GQ-5 0.1 μM: pre-treated with GQ-5 (0.1 μM) for 1 h, followed with TGF-β1 (10 ng/ml) for 1 h
(5) TGF-β1+GQ-5 0.5 μM: pre-treated with GQ-5 (0.5 μM) for 1 h, followed with TGF-β1 (10 ng/ml) for 1 h
(6) TGF-β1+GQ-5 2.5 μM: pre-treated with GQ-5 (2.5 μM) for 1 h, followed with TGF-β1 (10 ng/ml) for 1 h.
GQ-5 was dissolved in DMSO. Cells were treated as described. Cell lysates were immunoblotted with antibodies against phospho-Smad3, Smad3, phospho-Smad2, Smad2.
NRK52E cells were cultured in DMEM-Ham's medium supplemented with 10% fetal bovine serum. The cells reached at approximately 50% confluence were used for in vitro experiments. Cells were serum-starved for 12 h, and randomized into 8 groups: (1) Controls; (2) GQ-5 only; (3) TGF-β1 0.5 h; (4) TGF-β1 0.5 h+GQ-5; (5) TGF-β1 1.0 h; (6) TGF-β1 1.0 h+GQ-5; (7) TGF-β1 3.0 h; (8) TGF-β1 3.0 h+GQ-5; […]

[2] = test system: Smad3 phosphorylation; test: Smad3 phosphorylation in kidney tissue of UUO rats (immunohistochemistry, Western blot); format: in vivo, rat; details: GQ-5 40 mg/kg daily i.p. right after or 7 days after UUO, sacrificed day 14
Procedure: Male Sprague-Dawley rats with body weight 200 to 250 g were randomized into 4 groups (n=6 in each group): (1) sham operated rats; (2) UUO rats; (3) UUO+GQ-5 d1 rats; (4) UUO+GQ-5 d7 rats.
(§2) GQ-5 was dissolved in 5% propylene glycol.
(§3) (3) UUO+GQ-5 d1 rats: daily intraperitoneal injection of GQ-5 (40 mg/kg body weight) right after UUO;
(§4) (4) UUO+GQ-5 d7 rats: daily intraperitoneal injection of GQ-5 (40 mg/kg body weight) 7 days after UUO.
(§5) UUO was performed using an established protocol as described. GQ-5 was dissolved in 5% propylene glycol. Rats were administrated with GQ-5 as described before. All the rats were sacrificed 14 days after UUO. Immunohistochemical staining and Western blot analyses were performed to examine the Smad3 and Smad2 phosphorylation in kidney tissue.

[3] = test system: PI3K; test: Western blot of PI3K phosphorylation in UUO kidneys; format: in vivo, rat; details: UUO rats, GQ-5 40 mg/kg daily i.p. right after UUO, sacrificed day 14
Procedure: Male Sprague-Dawley rats with body weight 200 to 250 g were randomized into 3 groups (n=6 in each group): (1) sham operated rats; (2) UUO rats; (3) UUO+GQ-5 rats.
as §2
(3) UUO+GQ-5 rats: daily intraperitoneal injection of GQ-5 (40 mg/kg body weight) right after UUO;
as §5, with “UUO.” for “UUO. Immunohistochemical staining and”, “Smad4, Smad7 expression” for “Smad3”, “p38, PI3K, ERK phosphorylation.” for “Smad2 phosphorylation in kidney tissue.”

[4] = test system: α-SMA; test: Real-time PCR of TGF-β1-induced α-SMA mRNA in vitro; format: cell-based, rat; details: NRK 52E and NRK 49F cells, GQ-5 0.1-2.5 μM pre-treated 1 h, TGF-β1 10 ng/ml 36 h
Procedure: as §1, with “μM” for “μM.”
(2) GQ-5 only: pre-treated with GQ-5 (2.5 μM) for 1 h, followed with DMEM for 36 h
(3) TGF-β1 only: pre-treated with DMSO for 1 h, followed with TGF-β1 (10 ng/ml) for 36 h
(4) TGF-β1+GQ-5 0.1 μM: pre-treated with GQ-5 (0.1 μM) for 1 h, followed with TGF-β1 (10 ng/ml) for 36 h
(5) TGF-β1+GQ-5 0.5 μM: pre-treated with GQ-5 (0.5 μM) for 1 h, followed with TGF-β1 (10 ng/ml) for 36 h
(6) TGF-β1+GQ-5 2.5 μM: pre-treated with GQ-5 (2.5 μM) for 1 h, followed with TGF-β1 (10 ng/ml) for 36 h
GQ-5 was dissolved in DMSO. Cells were treated as described. Cells were collected for mRNA extraction. Real-rime PCR was performed to examine the mRNA expression of α-SMA, collagen I and fibronectin.

[5] = test system: α-SMA; test: α-SMA expression in UUO kidney tissue (real-time PCR, immunohistochemistry, Western blot); format: in vivo, rat; details: UUO rats, GQ-5 40 mg/kg daily i.p., sacrificed day 14
Procedure: Male Sprague-Dawley rats were randomized into 4 groups (n=6 in each group): (1) sham operated rats; (2) UUO rats; (3) UUO+GQ-5 d1 rats; (4) UUO+GQ-5 d7 rats.
as §2, §3, §4
UUO was performed using an established protocol as described. GQ-5 was dissolved in 5% propylene glycol. Rats were administrated with GQ-5 as described before. All the rats were sacrificed 14 days after UUO. HE staining, Masson trichrome staining were performed to examine the renal tissue injury, and Real-time PCR analyses, immunohistochemical staining, and Western blot analyses were performed to examine α-SMA, collagen I and fibronectin expression in kidney tissue

## CCCCCC/C=C\CCCCCCCc1cccc(O)c1O [GQ-5, 3-[(Z)-pentadec-8-enyl]catechol]
[1]; NRK52E and NRK49F cells, GQ-5 0.1, 0.5, 2.5 μM pre-treated 1 h, TGF-β1 10 ng/ml 1 h
  TGF-β1-induced Smad2 phosphorylation: did not affect
[1]; NRK52E cells, GQ-5 2.5 μM pre-treated 1 h, TGF-β1 10 ng/ml 0.5, 1.0, 3.0 h
  TGF-β1-induced Smad2 phosphorylation, time course: did not affect
[2]
  Smad3 phosphorylation in renal tissue: significantly inhibited
[3]
  phosphorylation of PI3K: did not affect
[4]
  TGF-β1-induced mRNA expression of α-SMA: significantly inhibited
[5]
  up-regulation of α-SMA at both mRNA and protein level: significantly inhibited
